Values of other authors as cited in US20230157949A1, “ORAL FILM OF HIV DRUGS” (LAURUS LABS LIMITED, priority 2020, published 2023).

Conditions: in combination with low doses of ritonavir

Compound: Cc1cccc(C)c1OCC(=O)N[C@@H](Cc1ccccc1)[C@@H](O)C[C@H](Cc1ccccc1)NC(=O)[C@H](C(C)C)N1CCCNC1=O [lopinavir, Lopinavir]
- increase of AUC: greater than 100 fold
